Measurements from patent US12534441B2, “Tryptamine analogues” (priority 2021, dated 2026).

Legend:
5-HT2C Receptor = target: T1, 5-HT2C Receptor (Homo sapiens, UniProt P28335); test: Serotonin calcium (Ca2+) assay, 2c receptor; assay type: cell-based; conditions: percentage relative response vs 10 μM serotonin, RLU; FIG. 3
T1 construct: host or cells: CHO-K1
T1 sequence (P28335 33-458): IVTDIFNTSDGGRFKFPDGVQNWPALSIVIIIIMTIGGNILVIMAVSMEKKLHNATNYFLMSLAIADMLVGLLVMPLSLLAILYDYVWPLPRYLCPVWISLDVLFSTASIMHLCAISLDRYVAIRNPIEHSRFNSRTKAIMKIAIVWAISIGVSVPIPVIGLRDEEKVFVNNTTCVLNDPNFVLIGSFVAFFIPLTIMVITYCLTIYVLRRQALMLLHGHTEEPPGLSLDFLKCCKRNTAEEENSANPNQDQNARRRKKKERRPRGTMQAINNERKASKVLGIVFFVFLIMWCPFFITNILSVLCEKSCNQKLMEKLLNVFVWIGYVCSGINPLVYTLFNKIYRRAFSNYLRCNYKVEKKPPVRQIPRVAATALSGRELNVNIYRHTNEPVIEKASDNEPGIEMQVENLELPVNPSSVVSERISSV
Protocol: Compounds 005, 008 and 018 were assayed using a serotonin (2a, 2b and 2c receptors) calcium (Ca^2+) assay, provided by Multispan. The reference used was 10 μM serotonin to calculate the percentage relative response in relative light units (RLU). The results can be seen in FIG. 3. Some activity for compound 005 in the 2c receptor assay was detected.
FLIPR calcium 6 assay explorer kit—VWR—cat. No. MLDVR8190
(§1) MULTISCREEN™ CHO-K1 Cell Line Stably Expressing Human 5-HT2C Receptor, Catalog DC1326-1

[1] = tested on: serotonin (1a, 1b, 2a, 2c and 7 receptors); test: Serotonin receptor cAMP assay (Multispan, HTRF); assay type: cell-based, Human; conditions: percentage relative response vs 10 μM forskolin; serotonin control; FIG. 1
Protocol: Compounds 005, 008 and 018 were assayed using a serotonin (1a, 1b, 2a, 2c and 7 receptors) cAMP assay, provided by Multispan. The reference used was 10 μM forskolin (a cAMP activator) to calculate the percentage relative response, serotonin was used as the control. The results can be seen in FIG. 1.
cAMP Gs dynamic kit—cisbio—cat. No. 62AM4PEC
MULTISCREEN™ HEK293T Cell Line Stably Expressing Human 5-HT1A Receptor, Catalog DC1319a
MULTISCREEN™ HEK293T Cell Line Stably Expressing Human 5-HT1B Receptor, Catalog DC1320a
(§2) MULTISCREEN™ CHO-K1 Cell Line Stably Expressing Human 5-HT2A Receptor, Catalog DC1324-1
as §1
MULTISCREEN™ HEK293T Cell Line Stably Expressing Human 5-HT7 Receptor, Catalog DC1334

HTR2C = target: T2, HTR2C (Homo sapiens, UniProt P28335); test: B-arrestin assay (DiscoverX PathHunter), 2c receptor; assay type: cell-based; conditions: percentage relative response vs 10 μM serotonin; FIG. 4
T2 construct: host or cells: U2OS
T2 sequence (P28335 33-458): T1 sequence (P28335 33-458)
Protocol: (§3) Compounds 005, 008 and 018 were assayed using a serotonin (1a, 1b, 2a and 2c receptors) B-arrestin assay, provided by DiscoverX. The reference used was 10 μM serotonin to calculate the percentage relative response. The results can be seen in FIG. 4. […] The compounds were also assayed in a serotonin 2b receptor B-arrestin assay, the results of which can be seen in FIG. 5.
HTR2C PathHunter® eXpress HTR2C U2OS β-Arrestin GPCR Assay 93-0289E3CP3M 200 dp (2×96-well)

HTR2A = target: T3, HTR2A (Homo sapiens, UniProt P28223); test: B-arrestin assay (DiscoverX PathHunter), 2a receptor; assay type: cell-based; conditions: percentage relative response vs 10 μM serotonin; FIG. 4
T3 construct: host or cells: U2OS
T3 sequence (P28223 whole entry): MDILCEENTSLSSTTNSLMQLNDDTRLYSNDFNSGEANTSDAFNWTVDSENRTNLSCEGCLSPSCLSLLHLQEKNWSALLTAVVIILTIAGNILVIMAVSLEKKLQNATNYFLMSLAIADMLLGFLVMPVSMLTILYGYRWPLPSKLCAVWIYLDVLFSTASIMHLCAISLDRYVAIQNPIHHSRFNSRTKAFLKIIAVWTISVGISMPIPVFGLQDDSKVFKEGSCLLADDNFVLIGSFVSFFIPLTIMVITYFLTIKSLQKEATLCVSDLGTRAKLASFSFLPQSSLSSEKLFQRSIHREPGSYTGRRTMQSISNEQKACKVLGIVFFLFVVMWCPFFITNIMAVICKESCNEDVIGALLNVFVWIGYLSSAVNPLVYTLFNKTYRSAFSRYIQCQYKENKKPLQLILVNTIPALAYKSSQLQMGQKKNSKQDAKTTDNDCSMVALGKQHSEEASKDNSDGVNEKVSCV
Protocol: as §3
HTR2A PathHunter® eXpress HTR2A U2OS β-Arrestin GPCR Assay 93-0401E3CP19M 200 dp (2×96-well)

[2] = tested on: serotonin (2a, 2b and 2c receptors); test: Serotonin receptor inositol phosphate 1 (IP1) assay (Multispan); assay type: cell-based, Human; conditions: percentage relative response vs 1 μM serotonin; FIG. 2
Protocol: Compounds 005, 008 and 018 were assayed using a serotonin (2a, 2b and 2c receptors) inositol phosphate 1 (IP1) assay, provided by Multispan. The reference used was 1 μM serotonin to calculate the percentage relative response. The results can be seen in FIG. 2.
IP-One Gq kit—cisbio—cat. No. 62IPAPEB
as §2
MULTISCREEN™ CHO-K1 Cell Line Stably Expressing Human 5-HT2B Receptor, Catalog DC1325-1
as §1

Row | SMILES | Ca2+ assay activity, 2c receptor (5-HT2C Receptor) | cAMP assay result (activation of the cAMP pathway) [1] | B-arrestin assay activity, 2c receptor (HTR2C) | B-arrestin assay activity, 2a receptor (HTR2A) | IP1 assay result (response curves) [2]
1 | CCN(C)CCc1c[nH]c2cccc(OC(=O)Nc3ccccc3)c12 [Compound 005, (S)-ethyl(methyl)(2-{4-[(phenylcarbam-oyl)oxy]-1H-indol-3-yl}ethyl)azanium] | Some activity | may have some activation of the cAMP pathway | appeared to have activity | Some activity | incomplete response curves in this assay, showing agonistic activity
2 | CCN(C)CCc1c[nH]c2cccc(Oc3ccccn3)c12 [Compound 008, (S)-ethyl(methyl){2-[4-(pyridin-2-yloxy)-1H-indol-3-ylethyl}-azanium] | – | – | – | Some activity | incomplete response curves in this assay, showing agonistic activity
3 | CC(C)N(C)[C@H](C)Cc1c[nH]c2ccccc12 [Compound 018, (R)-[(2R)-1-(1H-indol-3-yl)propan-2-yl](methyl)(propan-2-yl)azanium] | – | – | – | Some activity | incomplete response curves in this assay, showing agonistic activity
